The source of these data is article PMC9376946, “Peptide-RNA Coacervates as a Cradle for the Evolution of Folded Domains” (Journal of the American Chemical Society, 2022).

This assay has as its system polyU. Put plainly: CW-EPR of PA-12 in the presence of polyU (bound, slow-motion population). Type of assay: binding. Conditions: spectral simulation. How it is done:
Lyophilized, spin-labeled peptides were dissolved in Milli-Q water and centrifuged at 4000 rpm for 10 min to remove insoluble aggregates. The soluble fractions were used to prepare stock solutions of 250–500 μM peptide. Labeled peptide concentrations were determined by comparing the area under the curve of the EPR signal against that of standard solutions of 10–285 μM TEMPO. For the EPR measurements in D2O, 200 μL of the stock solution was lyophilized and re-dissolved in D2O. The concentration of the unlabeled peptide stock solutions was determined using the bicinchoninic acid assay (Thermo Fisher Scientific) and ranged from 0.8 to 1.2 mM peptide. A stock solution of 500 mM MES, pH 5.6 was used to adjust all samples to a final concentration of 50 mM MES, pH 5.6. Aliquots of 10 mg/mL polyuridylic acid (polyU; Sigma Aldrich) were prepared in Milli-Q water and diluted as necessary. For CW-EPR measurements, a quartz capillary of 0.6 mm i.d. and 0.84 mm o.d. was filled with 7–8 μL of the sample and sealed with Critoseal (Fisherbrand, Fisher Scientific) at one end. A single capillary was placed in an X-band EPR tube of 2 mm i.d. and 2.4 mm o.d. for measurements, except for spin concentration below 50 μM, where two capillaries were used.
Each sample was freshly prepared and the time to collect […] CW-EPR data was 30–40 min.
CW-EPR spectra were recorded on an Elexsys E500 X-Band (9.5 GHz) Bruker spectrometer using a high sensitivity resonator at room temperature. The following parameters were used: 0.1 mT field modulation amplitude, a 15 mT scan range, and 20 mW microwave power. Each scan was 42 s and at least 9 scans were accumulated for each data set. For samples with a high concentration of polyU or a low concentration of labeled peptide, at least 25–36 scans were collected to improve the signal to noise (S/N) ratio. Simulations of the spectra were performed using the “Chili” routine of EasySpin (www.easyspin.org).[21]
After characterizing the dynamic and structural properties of PA in solution, we proceeded to explore these properties upon interaction with the homopolymeric RNA molecule polyU. […] PA-12, like the unlabeled peptide, produced coacervates.[17] […] Using CW-EPR, binding of PA to RNA can be tracked through spin label dynamics. We initially kept the concentration of PA-12 constant at 150 μM and varied the amount of polyU. The CW-EPR spectra in Figure 3B indicate superposition of two populations, I and II. […] The relative intensity of II increases with the amount of polyU added, indicating binding of PA-12 to polyU. The percentage of II increased from 32% at 0.1 mg/mL polyU to 93% at 1 mg/mL polyU. Increasing to 2 mg/mL polyU and reducing the PA-12 concentration to 100 μM increased the population of II to 95% (Figures 3B and S15G). Such restricted motion and dynamic components have also been reported for proteins undergoing phase separation.[38],[39]

Where “and” joins values, the source holds several entries; their conditions need not be identical. Equal entries are not always repeated.

“RIRRASVEELTCVPGIGPRLARRILERLA [PA-12, Precursor-Arg peptide in which position 12 has been modified with a cysteine and attached to an M-TEMPO spin label]”: the “population I (fast motion)” value is 40 ± 5% and 40% (30 μM PA-12, 1 mg/mL polyU); 25 ± 5% (50 μM PA-12, 1 mg/mL polyU); 10 ± 4% (100 μM PA-12, 1 mg/mL polyU); 7 ± 2% (150 μM PA-12, 1 mg/mL polyU); 4 ± 2% (200 μM PA-12, 1 mg/mL polyU). Further, the “population II (slow motion, polyU-bound)” value is, setting by setting: (30 μM PA-12, 1 mg/mL polyU) 60 ± 5% and 60%; (50 μM PA-12, 1 mg/mL polyU) 75 ± 5%; (100 μM PA-12, 1 mg/mL polyU) 90 ± 4%; (100 μM PA-12, 2 mg/mL polyU, 50 mM MES pH 5.6, room temperature) 95%; (150 μM PA-12, 0.1 mg/mL polyU, 50 mM MES pH 5.6, room temperature) 32%; (150 μM PA-12, 1 mg/mL polyU, 50 mM MES pH 5.6, room temperature) 93 ± 2% and 93%. Besides, the “population II (slow motion, polyU-bound)” value (200 μM PA-12, 1 mg/mL polyU) was 96 ± 2% and 96%.
